Laboratory results reported in article PMC6290777, “Inhalation of the prodrug PI3K inhibitor CL27c improves lung function in asthma and fibrosis” (Nature Communications, 2018).

What was measured:
[1] = test system: Akt phosphorylation (Ser473) in murine neutrophils; assay: Akt phosphorylation in primary neutrophils stimulated with C5a; format: cell-based, mouse; conditions: C5a 25 nM
Experimental: Neutrophils were obtained from bone marrow isolated from femurs and tibias of C57BL/6J mice. Isolated bone marrow cells were centrifuged 12 min at 260× g and resuspended in 2 ml of physiologic salt solution and neutrophils were subsequently isolated after centrifugation (30 min at 1100× g, 4 °C without brake) through 3 Percoll gradients (from bottom to top: solution B, 75% of a 90% Percoll and 10% HBSS stock solution; solution C, 64% of a 90% Percoll and 10% HBSS stock solution; solution D 52% of a 90% Percoll and 10% HBSS stock solution). Once collected at the interface between the solution B and solution C, the cells were washed three times with 10 ml of physiologic salt solution and centrifuged for 5 min at 260 × g, 4 °C and pretreated for 1 h with CL27c at different concentration. After stimulation with C5a protein were extracted with Laemnli buffer.
For all cell types, phosphorylated Akt (P-Akt, Ser 473, 1:100, Cell Signaling Technology #4060) production was detected by western blot analysis and quantified with ChemiDoc™ XRS system. P-Akt signals are normalized on endogenous. […] To derive the EC50, all data were plotted on a dose response curve (Graph Pad software) and the EC50 was calculated by using the non-linear regression fit (equation [log agonist] vs response–variable slope). […]
panel). […] The respective EC50 was calculated by using nonlinear

[2] = Microsomial stability, mouse; format: in vitro ADME; conditions: mouse liver microsomes, NADPH
Experimental: To define whether this prodrug was suitable for inhaled administration, CL27c was studied to evaluate selected ADME (absorption, distribution, metabolism, and excretion) and pharmacokinetic properties. First, stability of CL27c and CL27e was analyzed in mouse plasma (Supplementary Table 1) and in mouse, rat, and human liver microsomes in the presence of nicotinamide adenine dinucleotide phosphate (NADPH; Supplementary Table 2). Next, clearance of CL27c was analyzed in C57BL/6J mice after either intra-venous or oral administration. […] Clearance of CL27c and CL27e after oral administration could not be determined due to their low bioavailability (Supplementary Table 3). […]
obtained at 200 × magnification were analyzed using the software Image -J (NIH, USA). Results were expressed as extracellular matrix deposition area (pixels). […]
Akt phosphorylation was measured by western blot as described in the “Western blot analysis” in […]
Cells were obtained from Lymph nodes and spleen from naive C57Bl/6J and purified with CD4 T cell isolation Kit (Miltenyi Biotec #130-104-454) and with CD25 biotin (eBioscience #13-0252-81) and microbeads anti-biotin (Miltenyi Biotec #130-090-485). […] Positive stained cells were analyzed with FlowJo X software after removal of doublets events and debris through FSC-A/FSC-H gating.

[3] = test system: fMLP-activated LPS-primed neutrophils; assay: ROS production by fMLP-activated LPS-primed neutrophils; format: cell-based, mouse; conditions: fMLP 2.5 μM; CL27c 1 and 10 µM
Experimental: Production of ROS was determined by primary isolated neutrophils (5 × 10^6/mL) (as described above) with lipopolysaccharide (1 μg/mL) for 1 h and then preincubating them with luminol (20 μg/mL) and horseradish peroxidase (35 μg/mL) in RPMI medium plus 10% FCS. The cells were subsequently stimulated with 2.5 μM formyl-methionyl-leucyl-phenylalanine (fMLP, Sigma-Aldrich), and light emission was recorded every 5 sec for a period of 300 sec in a Berthold MicroLumat Plus luminometer (Berthold Technologies).

COC(=O)c1cccc(Cn2cc(-c3cccc4c(=O)cc(N5CCOCC5)[nH]c34)nn2)c1 [CL27c]
Akt/PKB phosphorylation [1]: readily reduced Akt/PKB phosphorylation
Clint (intrinsic clearance) [2]: 0.1 ± 0.02 ml/min/mg prot
t1/2 [2]: 12.4 ± 2.0 min
reactive oxygen species production (respiratory burst) [3]: efficiently and dose-dependently inhibited reactive oxygen species production
